Reference: paper PMC13181795, “Structural Basis for BD1-Preferring 2,4-Disubstituted Pyrimidine BRDT Inhibitors” (Journal of Medicinal Chemistry, 2026)

Assay: Metabolic stability in male mouse liver microsomes
Assay type: in vitro ADME

Scaled-up CLint: 130 mL/min/kg
SMILES: O=C(O)Cc1ccccc1Nc1c(Cl)cccc1Cl [Diclofenac]
